Patent US11512128B2, “VEGF/DLL4 binding agents and uses thereof” (MEREO BIOPHARMA 5, INC., priority 2011, dated 2022)

How the values were obtained:
[1] = system: OMP-PN8 pancreatic tumor cells; test: Tumorigenicity of OMP-PN8 pancreatic tumor cells after treatment (serial transplantation); type: in vivo, NOD/SCID mice; conditions: 90 cells from treated tumors transplanted, day 55, no treatment; 21M18, bevacizumab 15 mg/kg, bispecifics 30 mg/kg, gemcitabine 70 mg/kg, four weeks
Experimental: FIG. 6. Tumorigenicity of pancreatic tumor cells after treatment with anti-VEGF/anti-DLL4 bispecific antibodies. OMP-PN8 tumor cells from mice treated with control antibody, anti-hDLL4 antibody 21M18, anti-VEGF antibody bevacizumab, or anti-VEGF/anti-DLL4 bispecific antibodies 219R45-MB-21M18 or 219R45-MB-21R79 with or without gemcitabine were processed to single cell suspensions, and serially transplanted into mice. 90 cells from each treatment group were injected subcutaneously into NOD/SCID mice. Tumors were allowed to grow with no treatment. Data is shown as tumor volume (mm^3) on day 55. Tumor frequency is shown as number of tumors over total number of mice injected in each group.
Mice bearing OMP-PN8 pancreatic tumors were treated with control antibody (15 mg/kg), anti-hDLL4 antibody 21M18 (15 mg/kg), anti-VEGF antibody bevacizumab (15 mg/kg), or anti-VEGF/anti-DLL4 bispecific antibodies 219R45-MB-21M18 or 219R45-MB-21R79 (30 mg/kg) with or without gemcitabine (70 mg/kg). Following four weeks of treatment, tumors were harvested, processed to single cell suspensions and the human tumor cells were purified by immunomagnetic depletion of murine cells. 90 human tumor cells from each treatment group were transferred to a new cohort of mice (n=10 mice/group). Tumors were allowed to grow for 55 days without any treatment and tumor volumes were measured with electronic calipers.

OMP-C8 colon tumor [2] = test: Tumorigenicity of OMP-C8 colon tumors after treatment (serial transplantation); type: in vivo, NOD/SCID mice; conditions: 150 cells from treated tumors transplanted, day 68; without irinotecan combination
Experimental: FIG. 10. Tumorigenicity of […] colon tumor cells after treatment with anti-VEGF/anti-DLL4 bispecific antibodies. Tumors from mice treated with control antibody, anti-hDLL4 antibody 21M18, anti-VEGF antibody bevacizumab, a combination of 21M18 and bevacizumab, or anti-VEGF/anti-DLL4 bispecific antibodies 219R45-MB-21M18 or 219R45-MB-21R79 with or without irinotecan were processed to single cell suspensions, and serially transplanted into mice. 150 cells from each treatment group were injected subcutaneously into NOD/SCID mice. Tumors were allowed to grow with no treatment. Data are shown as tumor volume (mm^3) on day 68.
Single cell suspensions of OMP-C8 colon tumor xenografts (20,000 cells) were injected subcutaneously into the flanks of 6-8 week old NOD/SCID mice. Tumors were allowed to grow for 33 days until they reached an average volume of 300 mm^3. The mice were randomized (n=5 per group) and treated with anti-DLL4 antibody 21M18, anti-VEGF antibody bevacizumab, a combination of antibodies 21M18 and bevacizumab, anti-VEGF/anti-DLL4 bispecific antibody 219R45-MB-21M18, anti-VEGF/anti-DLL4 bispecific antibody 219R45-MB-21R79, or control antibody, either in combination with irinotecan or without irinotecan. Antibodies and irinotecan were dosed weekly by injection into the intraperitoneal cavity. Antibodies 21M18 and bevacizumab were dosed at 7.5 mg/kg, bispecific antibodies 219R45-MB-21M18 and 219R45-MB-21R79 were dosed at 15 mg/kg, and irinotecan was dosed at 45 mg/kg. Tumors were harvested after 4 weeks, processed into single cell suspensions, and the human tumor cells were isolated. 150 tumor cells from each experimental group were injected subcutaneously into a new cohort of mice (n=10 per group) and tumors were allowed to grow without treatment. Tumor growth was monitored and tumor volumes were measured with electronic calipers.

OMP-C8 colon tumor cells = test: Tumor growth in human skin graft model; type: in vivo, NOD-SCID mice; conditions: 25 mg/kg intraperitoneally once a week
Experimental: FIG. 5. Inhibition of colon tumor growth in vivo by an anti-VEGF/anti-DLL4 bispecific antibody. OMP-C8 colon tumor cells were injected subcutaneously into a human skin graft in NOD/SCID mice. Mice were treated with control antibody (-▪-), anti-hDLL4 antibody 21M18 (-▴-), anti-VEGF antibody bevacizumab (-∘-), or anti-VEGF/anti-DLL4 bispecific antibody 219R45-MB-21M18 (-▾-). Data is shown as tumor volume (photons/sec) over days post-treatment. Antibodies were administered intraperitoneally at a dose of 25 mg/kg once a week.
A human skin graft model has been reported which comprises a human skin graft and human tumor cells. A human skin graft is established and then human tumor cells are implanted into the skin graft, allowing the tumor cells to grow in an environment with human stroma and vasculature (Tahtis et al., 2003, Mol. Cancer Ther. 2:[…]). Human skin samples were obtained from neonatal foreskin tissue and grafted onto the lateral flank of NOD-SCID mice. After establishment of the skin graft, luciferase-labeled OMP-C8 colon tumor cells (20,000 cells) were injected intradermally into the human skin. Tumor growth was monitored by bioluminescence imaging using an IVIS imaging system (Caliper Life Sciences, Mountain View, Calif.). Tumors were allowed to grow until they reached 1.2×10^6 photons per second. Tumor-bearing mice (n=6 mice/group) were randomized and treated with control Ab, anti-hDLL4 antibody 21M18, anti-VEGF antibody bevacizumab, or anti-VEGF/anti-DLL4 bispecific antibody 219R45-MB-21M18. Animals were treated once a week and antibodies were administered intraperitoneally at a dose of 25 mg/kg. Tumor growth was monitored by bioluminescence imaging on the indicated days.

OMP-C8 colon tumor [3] = test: OMP-C8 colon tumor growth in vivo; set-up: species or system NOD/SCID mice
Experimental: FIGS. 11A and 11B. Inhibition of colon tumor growth in vivo by anti-VEGF/anti-DLL4 bispecific antibodies. OMP-C8 colon tumor cells were injected subcutaneously into NOD/SCID mice. Mice were treated with control antibody (-▪-), anti-VEGF antibody bevacizumab (-▴-), or anti-VEGF/anti-DLL4 bispecific antibodies 219R45-MB-21M18 (-⋄-), 219R45-MB-21R75 (-●-), 219R45-MB-21R79 (-∘-), or 219R45-MB-21R83 (-▾-). Mice were treated with antibodies as single agents (FIG. 11A) or in combination with irinotecan (FIG. 11B). Antibodies were administered intraperitoneally at a dose of 15 mg/kg once a week and irinotecan at a dose of 7.5 mg/kg one a week. Data are shown as tumor volume (mm^3) over days post-treatment.
Single cell suspensions of OMP-C8 colon tumor xenografts (50,000 cells) were injected subcutaneously into the flanks of 6-8 week old NOD/SCID mice. Tumors were allowed to grow for 21 days until they reached an average volume of 80 mm^3. The mice were randomized (n=8 per group) and treated with anti-DLL4 antibody 21M18, anti-VEGF antibody bevacizumab, anti-VEGF/anti-DLL4 bispecific antibodies 219R45-MB-21M18, 219R45-MB-21R75, 219R45-MB-21R79, 219R45-MB-21R83, or control antibody, either alone or in combination with irinotecan. Antibodies and irinotecan were dosed weekly by injection into the intraperitoneal cavity. Bevacizumab and bispecific antibodies 219R45-MB-21M18, 219R45-MB-21R75, 219R45-MB-21R79, and 219R45-MB-21R83 were dosed at 15 mg/kg, and irinotecan was dosed at 7.5 mg/kg. Tumor growth was monitored and tumor volumes were measured with electronic calipers at the indicated time points. Data are expressed as mean±S.E.M.
Following the treatment phase, tumor sections were prepared and analyzed by hematoxylin and eosin (H&E) staining. […] This is characteristic of highly necrotic tumor tissue.

| Molecule | tumor growth frequency (mice with tumors) [1] | tumor growth frequency, single agents (OMP-C8 colon tumor [2]) | inhibition of tumor growth (bioluminescence) (OMP-C8 colon tumor cells) | inhibition of tumor growth in combination with irinotecan (OMP-C8 colon tumor [3]; antibody 15 mg/kg, irinotecan 7.5 mg/kg weekly ip) | H&E staining of tumor sections after treatment (OMP-C8 colon tumor [3]; in combination with irinotecan) |
| --- | --- | --- | --- | --- | --- |
| Nc1ccn([C@@H]2O[C@H](CO)[C@@H](O)C2(F)F)c(=O)n1 [gemcitabine, reference compound] | 10 out of 10 | – | – | – | – |
| CCc1c2c(nc3ccc(OC(=O)N4CCC(N5CCCCC5)CC4)cc13)-c1cc3c(c(=O)n1C2)COC(=O)[C@]3(O)CC [irinotecan, reference compound] | – | reduced tumor growth frequency | – | – | – |
| bevacizumab [reference compound] | 10 out of 10 | had no effect on tumor growth frequency | inhibited tumor growth | – | – |
| 219R45-MB-21R83: anti-VEGF/anti-DLL4 monovalent/bispecific antibody, heavy chains SEQ ID NO:7 and 62, light chains SEQ ID NO:8 (antibody, 21R79 Heavy chain without predicted signal sequence; 21R83 Heavy chain without signal sequence; Light chain without predicted signal sequence) heavy 1: QVQLVQSGAEVKKPGASVKVSCKASGYTFTNYWMHWVRQAPGQGLEWMGDINPSNGRTSYKEKFKRRVTLSVDKSSSTAYMELSSLRSEDTAVYFCTIHYDDKYYPLMDYWGQGTLVTVSSASTKGPSVFPLAPCSRSTSESTAALGCLVKDYFPEPVTVSWNSGALTSGVHTFPAVLQSSGLYSLSSVVTVPSSNFGTQTYTCNVDHKPSNTKVDKTVERKCCVECPPCPAPPVAGPSVFLFPPKPKDTLMISRTPEVTCVVVDVSHEDPEVQFNWYVDGVEVHNAKTKPREEQFNSTFRVVSVLTVVHQDWLNGKEYKCKVSNKGLPAPIEKTISKTKGQPREPQVYTLPPSREKMTKNQVSLTCLVKGFYPSDIAVEWESNGQPENNYKTTPPMLKSDGSFFLYSKLTVDKSRWQQGNVFSCSVMHEALHNHYTQKSLSLSPGK heavy 2: QVQLVQSGAEVKKPGASVKISCKASGYSFTAYYIHWVKQAPGQGLEWIGYISNYNRATNYNQKFKGRVTFTTDTSTSTAYMELRSLRSDDTAVYYCARDYDYDVGMDYWGQGTLVTVSSASTKGPSVFPLAPCSRSTSESTAALGCLVKDYFPEPVTVSWNSGALTSGVHTFPAVLQSSGLYSLSSVVTVPSSNFGTQTYTCNVDHKPSNTKVDKTVERKCCVECPPCPAPPVAGPSVFLFPPKPKDTLMISRTPEVTCVVVDVSHEDPEVQFNWYVDGVEVHNAKTKPREEQFNSTFRVVSVLTVVHQDWLNGKEYKCKVSNKGLPAPIEKTISKTKGQPREPQVYTLPPSREEMTKNQVSLTCLVEGFYPSDIAVEWESNGQPENNYKTTPPMLDSDGSFFLYSELTVDKSRWQQGNVFSCSVMHEALHNHYTQKSLSLSPGK light: DIVMTQSPDSLAVSLGERATISCRASESVDNYGISFMKWFQQKPGQPPKLLIYAASNQGSGVPDRFSGSGSGTDFTLTISSLQAEDVAVYYCQQSKEVPWTFGGGTKVEIKRTVAAPSVIFPPSDEQLKSGTASVVCLLNNFYPREAKVQWKVDNALQSGNSQESVTEQDSKDSTYSLSSTLTLSKADYEKHKVYACEVTHQGLSSPVTKSFNRGEC | – | – | – | greatest inhibition of tumor growth | dark pink staining regions providing evidence of extensive calcification |
